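Growth conditions: 96-well plates. Treatment: test compound, 48 hours, 5 concentrations. Analysis: linear interpolation between bracketing concentrations; unreached endpoints set to highest concentration. TGI is the concentration that stops growth completely.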
How the values were obtained:
Experiment in all cases: DTP human tumour cell line panel, 48 h
HOP-92 NSCLC = tested on: HOP-92 NSCLC
UACC-62 melanoma = tested on: UACC-62 melanoma
HT29 colon = tested on: HT29 colon
M14 melanoma = tested on: M14 melanoma
DU-145 prostate = tested on: DU-145 prostate
U251 CNS = tested on: U251 CNS
SNB-75 CNS = tested on: SNB-75 CNS
A498 renal = tested on: A498 renal
MDA-MB-231 breast = tested on: MDA-MB-231 breast
SK-OV-3 ovarian = tested on: SK-OV-3 ovarian
NCI-H23 lung = tested on: NCI-H23 lung
NCI-H226 lung = tested on: NCI-H226 lung
NCI-H522 lung = tested on: NCI-H522 lung
OVCAR-4 ovarian = tested on: OVCAR-4 ovarian
OVCAR-3 ovarian = tested on: OVCAR-3 ovarian
SF-539 CNS = tested on: SF-539 CNS
IGROV1 ovarian = tested on: IGROV1 ovarian
MOLT-4 leukemia = tested on: MOLT-4 leukemia
CCRF-CEM leukemia = tested on: CCRF-CEM leukemia
SF-295 CNS = tested on: SF-295 CNS

Row | Structure (SMILES) | TGI (HOP-92 NSCLC) [µM] | TGI (UACC-62 melanoma) [µM] | TGI (HT29 colon) [µM] | TGI (M14 melanoma) [µM] | TGI (DU-145 prostate) [µM] | TGI (U251 CNS) [µM] | TGI (SNB-75 CNS) [µM] | TGI (A498 renal) [µM] | TGI (MDA-MB-231 breast) [µM] | TGI (SK-OV-3 ovarian) [µM] | TGI (NCI-H23 lung) [µM] | TGI (NCI-H226 lung) [µM] | TGI (NCI-H522 lung) [µM] | TGI (OVCAR-4 ovarian) [µM] | TGI (OVCAR-3 ovarian) [µM] | TGI (SF-539 CNS) [µM] | TGI (IGROV1 ovarian) [µM] | TGI (MOLT-4 leukemia) [µM] | TGI (CCRF-CEM leukemia) [µM] | TGI (SF-295 CNS) [µM]
1 | O=C(OCc1ccccc1CN1CCOCC1)c1cccc(Br)c1 | > 100 | > 100 | 29.5 | > 100 | > 100 | > 100 | > 100 | > 100 | > 100 | > 100 | 80 | > 100 | 53.4 | 70 | 44.3 | > 100 | > 100 |  |  | 
2 | O=C1c2c(Cl)c(Cl)c(Cl)c(Cl)c2C(=O)N1CCN(c1c(Cl)ssc1=O)c1c(Cl)ssc1=O | 35.5 | 44.4 | 35.6 | 46.2 | 36.7 | > 100 | > 100 | > 100 | > 100 | > 100 | > 100 | > 100 | 57.8 | 40.2 | 36.6 | 35.4 | > 100 | 37.7 | 72 | > 100
3 | CCCCCCCC1C(C)c2c([nH]c3ccccc23)C2C(=O)N(c3ccc(OC)cc3)C(=O)C21 (stereo not drawn) | > 10 | > 10 | > 7.4 | > 9.51 | > 10 | 3.97 | 3.91 | 5.47 | > 7.84 | > 10 | 6.99 | > 8.21 | > 10 | 5.8 | 6.71 | > 7.09 | > 10 | > 10 | > 6.6 | > 6.64
4 | COc1cc2c(/C=C3/C(=O)N(C)c4ccccc43)c(Cl)[nH]c2cc1C | > 50.1 | > 52.3 |  | 11.5 | 3.44 | 1.57 | 46.2 | > 50.6 | 3.68 | 0.629 | 1.55 | > 100 | 0.518 | 4.14 | 0.929 | 0.0807 | 2.7 | 11.8 | > 26.8 | 3.44
5 | COc1ccc(/C=C2\CCCC(CN(C)C)C2=O)cc1 (stereo not drawn) | 8.99 | 4.13 | 3.47 | 4.21 | 30.2 | 3.88 | 21.6 | 30.4 | 8.61 | 23.4 | 13.9 | 33.5 | 2.85 | 4.43 | 4.99 | 31.1 | 7.51 | 2.56 | > 100 | 36.8
6 | CCOC(=O)c1ccc(Nc2cnc3cc(C(F)(F)F)ccc3n2)cc1 | > 100 | > 100 | > 100 |  | > 100 | > 100 | > 100 | > 100 | > 100 | > 100 | > 100 | > 100 | > 100 | > 100 | > 100 | > 100 | > 100 | > 100 | > 100 | > 100
7 | CC(=O)Nc1ccc(Nc2cc(=O)[nH]c(=O)[nH]2)cc1 | > 100 |  | > 100 | > 100 | > 100 | > 100 | > 100 | > 100 | > 100 |  |  | > 100 |  | > 100 | > 100 | > 100 | > 100 | 37.4 |  | > 100
8 | COc1cc(C2SC(N)=Nc3c2c(C)nn3C(=O)c2ccccc2O)cc(OC)c1OC (stereo not drawn) | 8.07 | 8.19 | > 10 | > 10 | > 10 | > 10 | 6.85 | > 10 | > 10 | > 10 | > 10 | > 10 |  | > 10 | > 10 | > 10 | 9.01 | > 10 | > 10 | > 10
9 | O=C1/C(=C/c2ccccc2)CCCC1CN1CCCCC1 (stereo not drawn) | 6.05 | 19.7 | 2.98 | 3.36 | 27.3 | 27 | 20.5 | 30.4 | 3.89 | 31 | 16.7 | 9.87 | 2.05 | 3.83 | 3.24 | 11.7 | 8.38 | > 100 |  | 33.6
10 | CC[C@@]1(N(C)C)C(=O)OCc2c1cc1n(c2=O)Cc2cc3ccccc3nc2-1 | 69.6 | 56.6 |  | > 100 | 98.1 | > 100 | 34.5 | > 100 | > 100 | 51.5 | 32 | 90.1 | 28.7 | > 100 | > 100 |  |  |  | 96.3 | 37.2
11 | Cc1cccc(C(C)C)c1NC(=O)C(=O)CC(=O)c1sc(Nc2ccccc2Cl)nc1C | 66.2 | > 100 |  | > 100 | > 100 | > 100 | > 100 | > 100 | > 100 | > 100 | > 100 |  | > 100 | > 100 | > 100 | 24.7 | > 100 | > 100 | > 100 | > 100
12 | Cc1ccc(S(=O)(=O)N2CCCN(S(=O)(=O)c3ccc(C)cc3)CCN(S(=O)(=O)c3ccc(C)cc3)CCCSCC2)cc1 | > 100 | > 100 | > 100 | > 100 | > 100 | > 100 | > 100 | > 100 | > 100 | > 100 | > 100 | > 100 |  | > 100 | > 100 | > 100 | > 100 | > 100 | > 100 | > 100
13 | COc1cc(C2SCC(=O)N2c2cc(Cl)c(Cl)cc2Cl)cc(OC)c1OC (stereo not drawn) | > 100 | 97.6 | > 100 | > 100 | > 100 | > 100 |  | > 100 | > 100 | > 100 | > 100 | > 100 | > 100 | > 100 | > 100 | > 100 | > 100 | > 100 | 77.6 | > 100
14 | CN(C)c1ccc(/C=c2/c3ccccc3n3c2c2ccccc2[n+]3C)cc1 | 1.92 | 0.998 |  | 1.69 | 4.19 | 1.46 | 8.29 | 5.14 | 2.42 | 14 | 3.45 | 15.3 | 0.619 | 8.3 | 4.42 | 3.12 | 2.27 | 2.67 | 1.23 | 13.1
15 | CC1CC(C)C(O)C(C2CC(CC(=O)NC3CCCCC3)CC(=O)O2)C1 (stereo not drawn) | > 100 |  | > 100 | > 100 | > 100 | > 100 | > 100 | > 100 | > 100 |  | > 100 | > 100 | > 100 | > 100 | > 100 | > 100 | > 100 | > 100 | > 100 | > 100
16 | CCC1=NC(N/N=C/c2ccco2)=N/C1=C\c1ccccc1O | > 100 | 53.6 | > 100 | > 100 | > 100 | > 100 |  | > 100 | > 100 | > 100 | > 100 | > 100 | 49.3 | 27.8 |  |  | 93.1 | > 100 | 70.4 | > 100
17 | N#CN=C(N)c1sc2nc3c(c(-c4ccc(Br)cc4)c2c1N)CCCC3 | 77.5 | 51.3 | 48.8 | > 100 | 71.9 | > 100 |  | 43.1 | 70.8 | > 100 | 66.9 | 42 |  | 26.9 |  | > 100 |  | > 100 | > 100 | 58.6
18 | CC(C)(C)c1cc(CC2C(=O)c3ccccc3C2=O)cc(C(C)(C)C)c1O | 1.07 | 17.7 | 13.8 | 11.6 | 14.7 | 13.2 |  | 47.7 | 7.74 | 7.71 | > 100 |  | 14.4 | > 100 | 9.53 | 16.7 | 26.4 | 9.56 | 40.7 | 12.4
19 | CCCCCC(C)(C)CCC(=O)OC1OC(COC2OC(COC3OC(CO)C(O)C(O)C3O)C(O)C(O)C2O)C(O)C(O)C1O (stereo not drawn) | > 100 | > 100 | > 100 | > 100 | > 100 | > 100 |  | > 100 | > 100 | > 100 | > 100 | > 100 | > 100 |  | > 100 | > 100 | > 100 | > 100 | > 100 | > 100
20 | O=C(/C=C1\N=C(c2ccccc2)N(c2nc3ccc(Sc4ccccc4)cc3[nH]2)C1=O)/C=C/c1ccccc1 | > 100 | 85.2 | 92.8 | > 100 | > 100 | 81.3 | 55.9 | > 100 | 53.8 | > 100 | > 100 |  | 58.2 | > 100 | > 100 |  | > 100 | > 100 | > 100 | > 100
21 | C/C=C/[C@H]1O[C@@](O)([C@@H](C)[C@H](O)[C@H](C)[C@H]2OC(=O)/C(OC)=C/C(C)=C/[C@@H](C)[C@@H](O)[C@@H](CC)[C@@H](O)[C@H](C)C/C(C)=C/C=C/[C@@H]2OC)C[C@H](OC2CC(O)C(O)C(C)O2)[C@@H]1C (stereo partly drawn) | 3.69 | 10.3 | 8.03 | < 0.0075 | 15.1 | 11.4 | 46 | 12.2 | 13.9 | 16.9 | 17.5 | 11.7 | 1.48 | 32 | 6.27 |  | 17 | < 0.0075 | < 0.0075 | 10.4
22 | COc1cc(Cc2cc3c(c(C(=O)O)c2Br)OCO3)cc(OC)c1OC | > 100 | > 100 | > 100 | > 100 | > 100 | > 100 | > 100 | > 100 | > 100 | > 100 | > 100 | > 100 |  | > 100 | > 100 | 91.1 | > 100 | > 100 | > 100 | > 100
23 | O=c1sc2c(s1)SSSSS2 | > 50 | > 50 | > 50 | > 50 | > 50 | > 50 |  | > 50 | > 50 | > 50 | > 50 | > 50 | > 50 | > 50 | > 50 | > 50 | > 50 | 42.3 | 42.1 | > 50
24 | O=S(=O)(O)c1c(Cl)cc(O)c2ncccc12 | > 100 | > 100 | > 100 | > 100 | > 100 | > 100 | > 100 | > 100 | > 100 |  | > 100 | > 100 |  | > 100 | > 100 | > 100 | > 100 | > 100 | > 100 | > 100
25 | ClCCCN(CCCCl)c1ccc(C=Nc2cccc(Cl)c2)cc1 | > 100 | 15.4 | > 100 | > 76.3 | > 44.6 | > 89.1 | > 100 |  | > 73.7 | > 100 | 53.5 | 8.67 | > 100 | > 79.5 | 57.9 | > 100 | > 100 | > 67.4 | 65.2 | > 82.4
